Measurements from PubChem BioAssay AID1918936 (Molecular Pharmacology Branch, DTP, NCI, 2023).

Test system: 349418-098-R-PDC complex spheroid viability
Experiment: Anticancer human tumor 349418-098-R-PDC patient-derived lung adenocarcinoma cell line growth inhibition
Conditions: for IC50: curve of first compound; for viability, T/C: stronger effect = lower value
In short: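 Complex spheroids of tumor cells with HUVEC and human MSCs, exposed to iadademstat combined with other agents. Each agent tested in half-log steps from near clinical Cmax (else 10 microM top), DMSO ≤0.25%.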

[1] = second compound 0.1 µM, first compound 0.0316 µM
[2] = second compound 0.1 µM, first compound 0.1 µM
[3] = second compound 0.1 µM, first compound 0.316 µM
[4] = second compound 0.1 µM, first compound 1 µM
[5] = second compound 0.1 µM, first compound 3.16 µM
[6] = second compound 0.1 µM, first compound 10 µM
[7] = second compound 0.316 µM, first compound 0.0316 µM
[8] = second compound 0.316 µM, first compound 0.1 µM
[9] = second compound 0.316 µM, first compound 0.316 µM
[10] = second compound 0.316 µM, first compound 1 µM
[11] = second compound 0.316 µM, first compound 3.16 µM
[12] = second compound 0.316 µM, first compound 10 µM
[13] = second compound 1 µM, first compound 0.0316 µM
[14] = second compound 1 µM, first compound 0.1 µM
[15] = second compound 1 µM, first compound 0.316 µM
[16] = second compound 1 µM, first compound 1 µM
[17] = second compound 1 µM, first compound 3.16 µM
[18] = second compound 1 µM, first compound 10 µM
[19] = second compound 3.16 µM, first compound 0.0316 µM
[20] = second compound 3.16 µM, first compound 0.1 µM
[21] = second compound 3.16 µM, first compound 0.316 µM
[22] = second compound 3.16 µM, first compound 1 µM
[23] = second compound 3.16 µM, first compound 3.16 µM
[24] = second compound 3.16 µM, first compound 10 µM
[25] = second compound 10 µM, first compound 0.0316 µM
[26] = second compound 10 µM, first compound 0.1 µM
[27] = second compound 10 µM, first compound 0.316 µM
[28] = second compound 10 µM, first compound 1 µM
[29] = second compound 10 µM, first compound 3.16 µM
[30] = second compound 10 µM, first compound 10 µM
[31] = second compound 0.1 µM, first compound 0.00316 µM
[32] = second compound 0.1 µM, first compound 0.01 µM
[33] = second compound 0.316 µM, first compound 0.00316 µM
[34] = second compound 0.316 µM, first compound 0.01 µM
[35] = second compound 1 µM, first compound 0.00316 µM
[36] = second compound 1 µM, first compound 0.01 µM
[37] = second compound 3.16 µM, first compound 0.00316 µM
[38] = second compound 3.16 µM, first compound 0.01 µM
[39] = second compound 10 µM, first compound 0.00316 µM
[40] = second compound 10 µM, first compound 0.01 µM
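Note: spheroids exposed to agents for seven days before readout.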
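Throughout, for viability, T/C: 100% = DMSO vehicle control wells.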

SMILES | IC50 (second compound 0.1 µM) | IC50 (second compound 0.316 µM) | IC50 (second compound 1 µM) | IC50 (second compound 3.16 µM) | IC50 (second compound 10 µM) | viability, T/C [1] | viability, T/C [2] | viability, T/C [3] | viability, T/C [4] | viability, T/C [7] | viability, T/C [8] | viability, T/C [9] | viability, T/C [10] | viability, T/C [13] | viability, T/C [14] | viability, T/C [15] | viability, T/C [16] | viability, T/C [19] | viability, T/C [20] | viability, T/C [21] | other results
CC(C)c1c(-c2ccccc2)nc2c(C#N)c[nH]n2c1=O + NC1CCC(NC2CC2c2ccccc2)CC1 | > 10000 nM | > 10000 nM | > 10000 nM | > 10000 nM | > 10000 nM | 108% | 112% | 93.7% | 105% | 108% | 110% | 113% | 104% | 104% | 113% | 108% | 100% | 96.4% | 92.5% | 113% | viability, T/C [5]: 104%; viability, T/C [6]: 88.1%; viability, T/C [11]: 101%; viability, T/C [12]: 98.8%; viability, T/C [17]: 104%; viability, T/C [18]: 93.8%; viability, T/C [22]: 108%; viability, T/C [23]: 102%; viability, T/C [24]: 87.3%; viability, T/C [25]: 101%; viability, T/C [26]: 84.1%; viability, T/C [27]: 108%; viability, T/C [28]: 93.6%; viability, T/C [29]: 86.4%; viability, T/C [30]: 78.7%
CC1COCCN1c1cc(-c2ccnn2C)c2ccnc(-c3ccn[nH]3)c2n1 (stereo not given) + NC1CCC(NC2CC2c2ccccc2)CC1 | 13.7 nM | 16.1 nM | 11.4 nM | 9.65 nM | 8.1 nM | 16.8% | 9.57% | 7.39% | 5.98% | 18.5% | 9.43% | 6.72% | 6.47% | 16.6% | 9.69% | 7.82% | 5.98% | 14.4% | 8.55% | 6.56% | viability, T/C [31]: 91.5%; viability, T/C [32]: 62.6%; viability, T/C [33]: 108%; viability, T/C [34]: 71.9%; viability, T/C [35]: 98.5%; viability, T/C [36]: 54.5%; viability, T/C [37]: 98.1%; viability, T/C [38]: 48.5%; viability, T/C [22]: 5.96%; viability, T/C [39]: 90.7%; viability, T/C [40]: 40.9%; viability, T/C [25]: 14.5%; viability, T/C [26]: 7.6%; viability, T/C [27]: 6.06%; viability, T/C [28]: 5.03%
CC1COCCN1c1cc(C2(S(C)(=N)=O)CC2)nc(-c2ccnc3[nH]ccc23)n1 (stereo not given) + NC1CCC(NC2CC2c2ccccc2)CC1 | 371 nM | 508 nM | 487 nM | 361 nM | 433 nM | 115% | 115% | 55.5% | 16.1% | 120% | 101% | 72.5% | 19.6% | 114% | 104% | 68.6% | 19.2% | 116% | 113% | 53.6% | viability, T/C [5]: 11%; viability, T/C [6]: 8.02%; viability, T/C [11]: 9.52%; viability, T/C [12]: 8.34%; viability, T/C [17]: 10.2%; viability, T/C [18]: 7.6%; viability, T/C [22]: 18.1%; viability, T/C [23]: 10.3%; viability, T/C [24]: 7.61%; viability, T/C [25]: 107%; viability, T/C [26]: 87.3%; viability, T/C [27]: 65.7%; viability, T/C [28]: 15.8%; viability, T/C [29]: 9.23%; viability, T/C [30]: 5.82%
COc1ccc([C@@H](O)c2cc(-c3ncnc4cc(N5CCOCC5)ccc34)c(F)cc2Cl)nn1 + NC1CCC(NC2CC2c2ccccc2)CC1 | 423 nM | 471 nM | 468 nM | 520 nM | 299 nM | 102% | 109% | 52.1% | 30.2% | 112% | 95.1% | 63.3% | 26.6% | 122% | 102% | 60.6% | 28.4% | 102% | 102% | 66.4% | viability, T/C [5]: 8.02%; viability, T/C [6]: 5.61%; viability, T/C [11]: 8.83%; viability, T/C [12]: 6.71%; viability, T/C [17]: 10.5%; viability, T/C [18]: 6.33%; viability, T/C [22]: 27%; viability, T/C [23]: 10.9%; viability, T/C [24]: 5.88%; viability, T/C [25]: 98.1%; viability, T/C [26]: 78.8%; viability, T/C [27]: 48.2%; viability, T/C [28]: 23.5%; viability, T/C [29]: 9.1%; viability, T/C [30]: 5.47%
O=C(C=Cn1cnc(-c2cc(C(F)(F)F)cc(C(F)(F)F)c2)n1)NNc1cnccn1 + NC1CCC(NC2CC2c2ccccc2)CC1 | < 3.16 nM | < 3.16 nM | < 3.16 nM | < 3.16 nM | < 3.16 nM | 7.06% | 4.2% | 3.1% | 2.53% | 6.85% | 4.29% | 3.65% | 2.34% | 6.23% | 4.78% | 2.92% | 2.31% | 7.11% | 4.9% | 3.12% | viability, T/C [31]: 19.9%; viability, T/C [32]: 8.25%; viability, T/C [33]: 16.7%; viability, T/C [34]: 8.83%; viability, T/C [35]: 22.8%; viability, T/C [36]: 8.34%; viability, T/C [37]: 21%; viability, T/C [38]: 8.38%; viability, T/C [22]: 2.6%; viability, T/C [39]: 17.9%; viability, T/C [40]: 9.32%; viability, T/C [25]: 6.65%; viability, T/C [26]: 4.32%; viability, T/C [27]: 3.64%; viability, T/C [28]: 2.6%
